In patent US10959961B2, “Methods of administering anionic cannabinoid molecules dissolved in water” (priority 2018, dated 2021):
Several values for one entry are separate records, joined by “and”; a condition that tells them apart may be missing. Equal entries are not always repeated.

How the values were obtained:
[1] = tested on: healthy, consenting adults; experiment: Qualitative assessment of pharmacokinetics in humans, oral self-administration (Example 23); assay type: in vivo, human
Description: Approximately 60 milligrams of 2-[(1R,6R)-6-isopropenyl-3-methylcyclohex-2-en-1-yl]-3-hydroxy-5-pentylphenolate prepared from crude industrial hemp extract was dissolved in water as described in Example 16, buffered to a pH of 9.1, and added to a 296 milliliter bottle of DASANI® purified water. […] A healthy, consenting adult self-administered the entire bottle of 60 milligrams of 2-[(1R,6R)-6-isopropenyl-3-methylcyclohex-2-en-1-yl]-3-hydroxy-5-pentylphenolate in water orally over 5 to 10 minutes. […] The individual described the psychoactive effect as a pleasant sensation accompanied by both an enhanced ability to focus and elevated alertness.
Approximately 30 milligrams of 2-[(1R,6R)-6-isopropenyl-3-methylcyclohex-2-en-1-yl]-3-hydroxy-5-pentylphenolate prepared from crude industrial hemp extract was dissolved in water, buffered to a pH of 9.1, and added to each of four 296 milliliter bottles of DASANI® purified water. […] Four healthy, consenting adults orally self-administered varying amounts of the four solutions over 5 to 10 minutes.

[2] = Removal of ethanol in a vacuum oven up to 157° C. (Example 15); assay type: physicochemical; conditions: oven under vacuum, ramped to 157° C.; purple taffy-like product
Description: 372 grams of crude industrial hemp extract containing approximately 65% cannabidiol was dissolved in ethanol at a weight ratio of 1:2 crude to ethanol. 43.2 grams of potassium hydroxide was slowly added to the hemp extract in ethanol, and the solution was stirred while heating at 55° C. The solution was then placed in an oven under vacuum and slowly ramped to a temperature of 157° C. over the course of approximately 1 hour, at which time heating was discontinued. The solution was then left in the oven under vacuum overnight.
The product produced by ethanol removal in an oven under vacuum was purple with a taffy-like consistency indicative of polymer formation. The product lacked appreciable solubility in water.

[3] = Third-party HPLC cannabinoid profile of olive oil extract of the aqueous solution (Example 24); assay type: physicochemical
Description: Pure cannabidiol was deprotonated and dissolved in water using a strategy similar to those described in Examples 16 and 19. Acetic acid was then added to 100 milliliters of the water, dropwise, until the purple color disappeared to reform cannabidiol. Reprotonated cannabidiol was extracted from the water using 4 milliliters of olive oil. Two 1 milliliter samples of the olive oil were sent to Botanacor Laboratories (Boulder, Colo.) for cannabinoid profile analysis using an Agilent Technologies (Santa Clara, Calif.) High Performance Liquid Chromatography instrument with a diode array detector. Botanacor Laboratories is ISO/IEC 17025 accredited for cannabinoid potency determination.

[4] = Color of phenolate in carbonate/bicarbonate buffer at variable pH (Example 19); assay type: physicochemical; conditions: approximately 1 gram-per-liter
Description: 1 gram of cannabidiol was dissolved in 6.6 milliliters of 0.5 molar potassium hydroxide in ethanol to produce 2-[(1R,6R)-6-isopropenyl-3-methylcyclohex-2-en-1-yl]-3-hydroxy-5-pentylphenolate. The solution was then diluted with 100 millimolar sodium carbonate in water to a final volume of 50 milliliters to produce a solution comprising 2-[(1R,6R)-6-isopropenyl-3-methylcyclohex-2-en-1-yl]-3-hydroxy-5-pentylphenolate at approximately 20-grams-per-liter. 0.5 milliliters of the 2-[(1R,6R)-6-isopropenyl-3-methylcyclohex-2-en-1-yl]-3-hydroxy-5-pentylphenolate solution was added to each of 25 test tubes containing 9.5 milliliters of 100 millimolar (0.1 M) carbonate/bicarbonate (CO3^2−/HCO3^−) buffer according to Table 1. Each test tube contained approximately 10 milligrams of 2-[(1R,6R)-6-isopropenyl-3-methylcyclohex-2-en-1-yl]-3-hydroxy-5-pentylphenolate at a concentration of approximately 1 gram-per-liter. pH's were confirmed by multiple different measurements.
It was expected that 2-[(1R,6R)-6-isopropenyl-3-methylcyclohex-2-en-1-yl]-3-hydroxy-5-pentylphenolate would reform cannabidiol at pH's below a threshold pH as evidenced by an expected color change from purple (indicative of 2-[(1R,6R)-6-isopropenyl-3-methylcyclohex-2-en-1-yl]-3-hydroxy-5-pentylphenolate) to colorless (indicative of cannabidiol).

[5] = Commercial viability of beverages: phenolate solution added to bottled water (Example 21); assay type: physicochemical
Description: 20 milliliters of water was removed from a 1 liter bottle of ESSENTIA® OVERACHIEVING H2O®. ESSENTIA® OVERACHIEVING H2O® contains purified water, sodium bicarbonate, dipotassium phosphate, magnesium sulfate, and calcium chloride, and its pH was determined to be about 9.5. The 20 milliliters of removed water was replaced with 20 milliliters of the 20 gram-per-liter solution of 2-[(1R,6R)-6-isopropenyl-3-methylcyclohex-2-en-1-yl]-3-hydroxy-5-pentylphenolate, which is described in Example 19, and the bottle was sealed using the screw-cap top of the bottle to produce a sealed container containing approximately 400 milligrams of 2-[(1R,6R)-6-isopropenyl-3-methylcyclohex-2-en-1-yl]-3-hydroxy-5-pentylphenolate. The pH of the liquid was measured and determined to be about 10.
5 milliliters of water was removed from a 500 milliliter bottle of DASANI® purified water. DANSANI® purified water contains purified water, magnesium sulfate, potassium chloride, and sodium chloride, and its pH was determined to be about 7.0. The 5 milliliters of removed water was replaced with 5 milliliters of the 20 gram-per-liter solution of 2-[(1R,6R)-6-isopropenyl-3-methylcyclohex-2-en-1-yl]-3-hydroxy-5-pentylphenolate, which is described in Example 19, and the bottle was sealed using the screw-cap top of the bottle to produce a sealed container containing approximately 100 milligrams of 2-[(1R,6R)-6-isopropenyl-3-methylcyclohex-2-en-1-yl]-3-hydroxy-5-pentylphenolate. The pH of the liquid was measured and determined to be about 9.5.
0.5 milliliters of water was removed from a 500 milliliter bottle of DASANI® purified water. […] The pH of the liquid was measured and determined to be about 8.5.

[6] = Dissolving salts of the phenolate in water (Examples 14 and 17); assay type: physicochemical; conditions: salt from 1.4 grams cannabidiol, dried under vacuum; 90 milliliters
Description: 1.4 grams of pure cannabidiol was dissolved in 10 milliliters of 0.5 molar potassium hydroxide in ethanol to convert the cannabidiol into 2-[(1R,6R)-6-isopropenyl-3-methylcyclohex-2-en-1-yl]-3-hydroxy-5-pentylphenolate. A potassium salt of 2-[(1R,6R)-6-isopropenyl-3-methylcyclohex-2-en-1-yl]-3-hydroxy-5-pentylphenolate was formed by drying the ethanol solution under vacuum overnight. 90 milliliters of 100 millimolar aqueous sodium carbonate was added to the potassium salt of 2-[(1R,6R)-6-isopropenyl-3-methylcyclohex-2-en-1-yl]-3-hydroxy-5-pentylphenolate.
This example describes a successful attempt to produce a salt of 2-[(1R,6R)-6-isopropenyl-3-methylcyclohex-2-en-1-yl]-3-hydroxy-5-pentylphenolate that readily dissolves in water. A first aliquot from Example 16 was lyophilized to produce salts including a potassium 2-[(1R,6R)-6-isopropenyl-3-methylcyclohex-2-en-1-yl]-3-hydroxy-5-pentylphenolate salt and a sodium 2-[(1R,6R)-6-isopropenyl-3-methylcyclohex-2-en-1-yl]-3-hydroxy-5-pentylphenolate salt. […] The water was centrifuged to remove undissolved salt and to produce an aqueous solution of 2-[(1R,6R)-6-isopropenyl-3-methylcyclohex-2-en-1-yl]-3-hydroxy-5-pentylphenolate concentrate for inclusion in beverages.

[7] = Approximate pKa of cannabidiol by color at varying sodium bicarbonate (Example 20); assay type: physicochemical; conditions: from color change at pH 8.0 and 8.3, read-out: pKa of cannabidiol in dilute aqueous solution
Description: This example confirms that 2-[(1R,6R)-6-isopropenyl-3-methylcyclohex-2-en-1-yl]-3-hydroxy-5-pentylphenolate is viable for inclusion in beverages formulated for human consumption. 0.5 milliliters of the 20 gram-per-liter solution of 2-[(1R,6R)-6-isopropenyl-3-methylcyclohex-2-en-1-yl]-3-hydroxy-5-pentylphenolate described in Example 19 was diluted with 9.5 milliliters of distilled water comprising varying concentrations of sodium bicarbonate, and color was monitored as shown in Table 2. pH's were confirmed by multiple different measurements.
A color change was visually apparent at a pH of 8.0, and a subtle color change was visually apparent at pH of 8.3.

[8] = Adjusting the pH of the phenolate emulsion to 9.1 with sodium bicarbonate (Examples 7 and 8); assay type: physicochemical; conditions: emulsion adjusted to pH 9.1, color change and lipid phase separation
Description: 1.65 grams of carbon-filtered industrial hemp extract comprising approximately 65% cannabidiol was dissolved in 10 milliliters of 420 millimolar potassium hydroxide in ethanol to convert the cannabidiol into 2-[(1R,6R)-6-isopropenyl-3-methylcyclohex-2-en-1-yl]-3-hydroxy-5-pentylphenolate.
1 gram of cannabidiol isolate was dissolved in 10 milliliters of 380 millimolar potassium hydroxide in ethanol to convert the cannabidiol into 2-[(1R,6R)-6-isopropenyl-3-methylcyclohex-2-en-1-yl]-3-hydroxy-5-pentylphenolate.

[9] = approximately 60 milligrams in 296 mL water, pH 9.1, oral over 5 to 10 minutes, one adult

## C=C(C)[C@@H]1CCC(C)=C[C@H]1c1c(O)cc(CCCCC)cc1O [2-[(1R,6R)-6-isopropenyl-3-methylcyclohex-2-en-1-yl]-3-hydroxy-5-pentylphenolate]
[1]; [9]
  onset of a perceptible psychoactive effect: within minutes of ingestion
  time of marked perceptible psychoactive effect following ingestion: approximately 30 minutes
[1]; approximately 100 milligrams per liter, pH 9.1, varying amounts, oral over 5 to 10 minutes, four adults
  individuals reporting rapid onset of a perceptible psychoactive effect within minutes of ingestion: Three of the four individuals
[1]; dissolved in water, orally administered
  time to psychoactive effects after ingestion: less than 5 minutes
[2]
  stability at high temperatures: unstable at high temperatures
[3]; worked out from the olive oil samples
  concentration dissolved in water: about 78 milligrams per liter
[4]; pH's of 9.1 and above, 0.1 M carbonate/bicarbonate buffer
  color change from purple to colorless: No color change
[5]; approximately 10 milligrams in 500 milliliter DASANI water, pH about 8.5
  appearance of the liquid: transparent and lacked discernable color
[5]; approximately 100 milligrams in 500 milliliter DASANI water, pH about 9.5
  appearance of the liquid: transparent and purple
[5]; approximately 400 milligrams in 1 liter ESSENTIA water, pH about 10
  appearance of the liquid: purple and transparent

## C=C(C)[C@@H]1CCC(C)=C[C@H]1c1c([O-])cc(CCCCC)cc1O.[K+] [potassium salt of 2-[(1R,6R)-6-isopropenyl-3-methylcyclohex-2-en-1-yl]-3-hydroxy-5-pentylphenolate]
[6]
  dissolution in 100 millimolar aqueous sodium carbonate: the majority of the salt remained in the solid phase

## C=C(C)[C@@H]1CCC(C)=C[C@H]1c1c(O)cc(CCCCC)cc1O [cannabidiol, 2-[(1R,6R)-6-isopropenyl-3-methylcyclohex-2-en-1-yl]-5-pentylbenzene-1,3-diol]
[3]; HPLC with diode array detector
  other cannabinoids in the olive oil samples: did not detect any other cannabinoid
[3]; reprotonated with acetic acid, 100 mL water extracted with 4 mL olive oil, two samples, HPLC
  cannabidiol content of olive oil samples: 0.18 % by weight and 0.21 % by weight
[7]
  pKa: 8 to 8.5
[8]; Example 7, from carbon-filtered industrial hemp extract, read-out: pKa of cannabidiol in water
  pKa: > 9.1
[8]; Example 8, from cannabidiol isolate
  pKa of cannabidiol in water: greater than 9.1
[4]; Example 19, dilute aqueous solutions, read-out: pKa of cannabidiol
  pKa: < 9.1
